Assay results reported in US20250127801A1, “BRIDGED TRICYCLIC CARBAMOYLPYRIDONE COMPOUNDS AND USES THEREOF” (priority 2023, published 2025).

Test: in vivo
Settings: male, beagle, dog, po, 175 mg

Compound	bioavailability
CC1=NO[C@@]2(CC[C@H](C)N3C[C@H]2n2cc(C(=O)NCc4ccc(F)cc4F)c(=O)c(O)c2C3=O)C1 [Intermediate B, (3′S,5S,7′R)—N-(2,4-difluorobenzyl)-12′-hydroxy-3,3′-dimethyl-1′,11′-dioxo-1′,4′,5′,11′-tetrahydro-3′H,4H,7′H-spiro[isoxazole-5,6′-[2,7]methanopyrido[1,2-a][1,4]diazonine]-10′-carboxamide]	15.6%
COC1=NO[C@@]2(CC[C@H](C)N3C[C@H]2n2cc(C(=O)NCc4ccc(F)cc4F)c(=O)c(O)c2C3=O)C1 [Intermediate C, (3′S,5S,7′R)—N-(2,4-difluorobenzyl)-12′-hydroxy-3-methoxy-3′-methyl-1′,11′-dioxo-1′,4′,5′,11′-tetrahydro-3′H,4H,7′H-spiro[isoxazole-5,6′-[2,7]methanopyrido[1,2-a][1,4]diazonine]-10′-carboxamide]	14.5%
